Measurements: PubChem BioAssay (NCI)
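Interpolation was linear, between the two tested concentrations surrounding the appropriate level; five concentrations were tested over 48 hours in 96-well plates. At the GI50, growth is halved. TGI is the concentration that stops growth completely.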

What was measured:
Test in all cases: growth of human tumour cells (NCI), 48 h
[1] = system: SN12C renal
[2] = system: HOP-62 NSCLC
[3] = system: SNB-75 CNS
[4] = system: IGROV1 ovarian
[5] = system: SW-620 colon
[6] = system: A549 NSCLC
[7] = system: MOLT-4 leukemia
[8] = system: KM12 colon
[9] = system: NCI-H460 lung
[10] = system: HOP-92 NSCLC

## [N-]=[N+]=NC(c1ccccc1)(c1ccccc1)c1ccccc1
[1]
  TGI: 30.9 µM
[2]
  TGI: 42.2 µM
[3]
  TGI: 34.4 µM
[4]
  TGI: 63.7 µM
[5]
  TGI: 40.5 µM
[6]
  TGI: 34.3 µM
[7]
  TGI: 44.8 µM
[8]
  TGI: 46.8 µM
[9]
  TGI: 33 µM
[10]
  TGI: 32.3 µM

## CC(C)=CCC[C@@H](C)c1c(O)c(O)c(C)c2nccnc12
[1]
  TGI: > 100 µM
[2]
  TGI: > 77.9 µM
[3]
  TGI: > 100 µM
[4]
  TGI: > 81.5 µM
[5]
  TGI: > 100 µM
[6]
  TGI: > 100 µM
[7]
  TGI: > 53.1 µM
[8]
  TGI: > 72 µM
[9]
  TGI: > 100 µM
[10]
  TGI: > 94.2 µM

## Cc1ccnc(NS(=O)(=O)c2ccc(N=[N+]=[N-])cc2)n1
[1]
  TGI: > 100 µM
[2]
  TGI: > 100 µM
[3]
  TGI: > 100 µM
[4]
  TGI: > 100 µM
[5]
  TGI: > 100 µM
[6]
  TGI: > 100 µM
[7]
  TGI: > 60.4 µM
[8]
  TGI: > 100 µM
[9]
  TGI: > 100 µM
[10]
  TGI: > 100 µM

## Nc1nc2c(c(-c3cccc(Cl)c3)n1)COC/C2=C\c1cccc(Cl)c1
[1]
  TGI: > 100 µM
[2]
  TGI: > 100 µM
[3]
  TGI: > 100 µM
[4]
  TGI: > 100 µM
[5]
  TGI: > 100 µM
[7]
  TGI: > 100 µM
[8]
  TGI: > 100 µM
[9]
  TGI: > 100 µM
[10]
  TGI: > 100 µM

## C#CCn1c(=O)c2ccccc2n(CC#C)c1=O
[1]
  TGI: > 10 µM
[2]
  TGI: > 10 µM
[3]
  TGI: > 10 µM
[4]
  TGI: > 10 µM
[5]
  TGI: > 10 µM
[6]
  TGI: > 10 µM
[7]
  TGI: > 10 µM
[8]
  TGI: > 10 µM
[9]
  TGI: > 10 µM
[10]
  TGI: > 10 µM

## Oc1ccccc1CNCc1nc2ccccc2[nH]1
[1]
  TGI: > 100 µM
[2]
  TGI: > 100 µM
[3]
  TGI: > 100 µM
[4]
  TGI: > 100 µM
[5]
  TGI: > 100 µM
[6]
  TGI: > 100 µM
[7]
  TGI: > 100 µM
[8]
  TGI: > 100 µM
[10]
  TGI: > 100 µM

## CCOC(=O)Nc1sc2c(c1C#N)CCCC2
[1]
  TGI: > 100 µM
[2]
  TGI: > 100 µM
[4]
  TGI: > 100 µM
[5]
  TGI: > 100 µM
[7]
  TGI: > 100 µM
[8]
  TGI: > 100 µM
[9]
  TGI: > 100 µM
[10]
  TGI: > 100 µM

## Nn1c(-c2ccccc2)n[nH]c1=O
[1]
  TGI: > 100 µM
[2]
  TGI: > 100 µM
[3]
  TGI: > 100 µM
[4]
  TGI: > 100 µM
[5]
  TGI: > 100 µM
[6]
  TGI: > 100 µM
[7]
  TGI: > 100 µM
[8]
  TGI: > 100 µM
[9]
  TGI: > 100 µM
[10]
  TGI: > 100 µM

## O=C1c2cc3c(cc2-c2c1c1ccc(F)cc1c(=O)n2C[C@H](O)[C@@H](O)[C@H](O)CO)OCO3
[2]
  GI50: 0.0324 µM
  TGI: 0.27 µM
[4]
  GI50: 0.302 µM
  TGI: > 100 µM
[6]
  GI50: 0.226 µM
  TGI: > 100 µM
[7]
  GI50: 0.0334 µM
  TGI: 0.426 µM
[10]
  GI50: 0.18 µM
  TGI: 0.69 µM

## Nn1c(Nc2ccc(S(=O)(=O)Nc3ncccn3)cc2)nnc(/C=C/c2c(O)ccc3ccccc23)c1=O
[1]
  TGI: > 100 µM
[2]
  TGI: > 100 µM
[3]
  TGI: 66.5 µM
[4]
  TGI: > 100 µM
[5]
  TGI: > 100 µM
[6]
  TGI: > 100 µM
[7]
  TGI: > 100 µM
[9]
  TGI: 69.2 µM
[10]
  TGI: > 100 µM

## COc1ncc(/C=C2\OC(=O)c3ccccc32)c(OC)n1
[1]
  TGI: > 100 µM
[2]
  TGI: 66 µM
[3]
  TGI: 47.3 µM
[4]
  TGI: > 100 µM
[5]
  TGI: > 100 µM
[6]
  TGI: > 100 µM
[7]
  TGI: > 100 µM
[8]
  TGI: > 100 µM
[9]
  TGI: > 100 µM
[10]
  TGI: > 100 µM
